Converted amounts (≈) assume the structure as drawn.
Legend:
Pimephales promelas = conditions: chronic/long-term; duration: 33 days; growth
Canidae = conditions: chronic; duration: 1 years; oral; Dog Other; organ weight
Apis mellifera = conditions: acute; duration: 48 hours; oral; unspecified; mortality
Oncorhynchus mykiss = conditions: acute; duration: 96 hours; mortality
Daphnia magna = conditions: chronic/long-term; duration: 21 days; reproduction
Bibionidae = conditions: chronic/long-term; duration: 28 days
Rattus norvegicus = conditions: for NOAEL: organ weight
Aphidius rhopalosiphi = experiment: LR50; higher = less toxic; conditions: not reported; mortality

CO/C=C(/C(=O)OC)c1ccccc1Oc1cc(Oc2ccccc2C#N)ncn1 [Azoxystrobin]
LC50 (Colinus virginianus; acute, oral, diet, mortality): > 5200 mg/kg-day | LD50 (Colinus virginianus; acute, oral, mortality): > 2000 mg/kg-day | NOEC (Colinus virginianus; reproduction developmental): 1200 mg/kg-day | NOEC (Pimephales promelas): 0.147 mg/L | NOAEL (Canidae): 25 mg/kg-day | LD50 (Apis mellifera): > 25 µg/piece | LC50 (Oncorhynchus mykiss): 0.47 µg/mL (≈ 1.17 µM) | NOEC (Daphnia magna): 0.044 mg/L | NOEC (Bibionidae): 0.8 mg/L | LD50 (Rattus norvegicus; acute, oral, mortality): > 5000 mg/kg-day | NOAEL (Rattus norvegicus; chronic, duration: 2 years, oral, diet): 18 mg/kg-day | NOEL (Rattus norvegicus; reproduction developmental, body weight): 32 mg/kg-day | NOAEL (Rattus norvegicus; subchronic, duration: 90 days, oral): 21 mg/kg-day | LC50 (Tagia sp.; acute, duration: 14 days, mortality): 283 mg/kg | NOEC (Tagia sp.; chronic/long-term, duration: 56 days): 3 mg/kg | LR50 (Aphidius rhopalosiphi): > 1000 g/ha
